Assay results: publication PMC7406541, “Vectorial transport of the arginine derivatives asymmetric dimethylarginine (ADMA) and L-homoarginine by OATP4C1 and P-glycoprotein studied in double-transfected MDCK cells” (Amino Acids, 2020)

Legend:
[1] = parameters: method as in Kielstein et al. [2009]; settings: ref Kielstein et al. [2009]; cited from earlier work
[2] = test system: human OATP4C1 and human P-gp; test: Transcellular basal to apical (vectorial) transport across double-transfected MDCK-OATP4C1-P-gp cell monolayers; settings: for Time-dependent transcellular transport in MDCK-OATP4C1-P-gp cells compared to the other tested cell lines: all time points 1, 2, 3 and 4 h; for Transport ratio MDCK-OATP4C1-P-gp/MDCK-VC: 50 µM, basolateral to apical; for Average ratio of vectorial transport (relative to MDCK-VC cells): MDCK-OATP4C1-P-gp, 1 h incubation
[3] = molecular target: human P-gp (Homo sapiens, UniProt P08183); test: Transcellular basal to apical (vectorial) transport across MDCK-P-gp cell monolayers; settings: for Average ratio of vectorial transport (relative to MDCK-VC cells): MDCK-P-gp, 1 h incubation
human P-gp, sequence (P08183 whole entry): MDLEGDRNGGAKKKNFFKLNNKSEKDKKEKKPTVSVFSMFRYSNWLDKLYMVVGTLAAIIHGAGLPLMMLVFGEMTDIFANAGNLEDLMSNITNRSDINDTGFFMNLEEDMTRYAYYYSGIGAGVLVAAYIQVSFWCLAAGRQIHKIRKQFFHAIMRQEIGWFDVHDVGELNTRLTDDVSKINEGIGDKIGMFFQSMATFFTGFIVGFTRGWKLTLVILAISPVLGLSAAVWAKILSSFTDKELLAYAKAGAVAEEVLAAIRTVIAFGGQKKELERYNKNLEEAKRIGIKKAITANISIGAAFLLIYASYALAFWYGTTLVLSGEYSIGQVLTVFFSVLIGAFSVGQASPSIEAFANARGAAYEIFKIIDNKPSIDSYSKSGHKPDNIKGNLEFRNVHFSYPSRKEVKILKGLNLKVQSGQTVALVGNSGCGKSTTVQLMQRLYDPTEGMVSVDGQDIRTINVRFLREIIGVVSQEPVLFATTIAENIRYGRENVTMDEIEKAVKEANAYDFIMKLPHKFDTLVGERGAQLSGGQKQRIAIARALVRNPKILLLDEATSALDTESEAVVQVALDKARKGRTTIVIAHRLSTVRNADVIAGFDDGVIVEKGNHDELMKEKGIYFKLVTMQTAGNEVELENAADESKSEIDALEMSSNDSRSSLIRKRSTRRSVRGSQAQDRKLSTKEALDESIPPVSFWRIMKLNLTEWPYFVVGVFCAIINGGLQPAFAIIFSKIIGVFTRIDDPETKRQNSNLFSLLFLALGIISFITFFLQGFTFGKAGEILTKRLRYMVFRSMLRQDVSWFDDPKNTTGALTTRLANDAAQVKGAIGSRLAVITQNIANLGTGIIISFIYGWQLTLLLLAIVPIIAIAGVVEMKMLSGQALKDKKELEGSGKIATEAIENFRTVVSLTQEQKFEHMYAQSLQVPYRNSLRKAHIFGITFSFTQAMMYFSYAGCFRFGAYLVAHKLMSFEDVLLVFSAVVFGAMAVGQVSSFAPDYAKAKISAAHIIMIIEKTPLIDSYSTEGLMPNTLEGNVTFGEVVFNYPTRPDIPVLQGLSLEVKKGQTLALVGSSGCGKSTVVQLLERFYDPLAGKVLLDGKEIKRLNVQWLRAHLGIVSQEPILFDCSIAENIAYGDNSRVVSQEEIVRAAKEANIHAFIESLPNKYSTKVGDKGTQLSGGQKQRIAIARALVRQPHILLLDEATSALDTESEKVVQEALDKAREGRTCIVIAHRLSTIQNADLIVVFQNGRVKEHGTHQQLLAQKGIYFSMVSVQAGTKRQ

[4] = test system: human OATP4C1; test: Transcellular basal to apical (vectorial) transport across MDCK-OATP4C1 cell monolayers; settings: 1 h incubation
[5] = test system: MDCK-VC cells; test: Transcellular basal to apical transport across MDCK-VC control cell monolayers; type: in vitro ADME; settings: 1 µM, 1 h
Method: Transcellular transport in MDCK-OATP4C1-P-gp double-transfectants and respective MDCK-OATP4C1 and MDCK-P-gp single-transfectants as well as in the MDCK-VC control cell line was analyzed as previously described (Taghikhani et al. [2017]). Cells were cultured in Transwell membrane inserts (14 mm diameter, 0.4 µm pore size; Greiner Bio-One, Frickenhausen, Germany) in an initial density of 5 × 10^5 cells/well. Cells were cultivated at 37 °C for 48 h before inducing them by replacing the medium with fresh medium containing 10 mM of sodium butyrate. After 24 h of further incubation, cells were used for transcellular transport studies.
To study the transcellular transport, cells were washed with pre-warmed (37 °C) uptake buffer applied to both the basolateral and apical compartment. […] After incubating the cells for stated time points, the amount of radioactivity on the apical compartment was measured by liquid scintillation counting.
Concentration dependency of transcellular transport of ADMA and L-homoarginine was studied by applying the respective compound in concentrations of 1, 20, 50 and 100 µM on the basolateral compartment of MDCK transfectants. […] Cells were lysed and the cellular protein content was quantified as described. 400 µl (or 80 µl for time-dependency analysis) of the applied donor solutions were also analyzed by scintillation counting as reference. […]

[6] = test system: CAT1; parameters: method as in Chafai et al. [2017]; settings: ref Chafai et al. [2017]; read-out: Km value for CAT1-mediated uptake; cited from earlier work
[7] = test system: OATP4C1; parameters: method as in Taghikhani et al. [2019]; settings: ref Taghikhani et al. [2019]; read-out: Km value as substrate of OATP4C1; cited from earlier work

Row | SMILES | Time-dependent transcellular transport in MDCK-OATP4C1-P-gp cells compared to the other tested cell lines ([2]; 1 µM) | Transport ratio MDCK-OATP4C1-P-gp/MDCK-VC [2] [fold] | Average ratio of vectorial transport (relative to MDCK-VC cells) ([2]; 1 µM basal) | Average ratio of vectorial transport (relative to MDCK-VC cells) ([2]; 20 µM basal) | Average ratio of vectorial transport (relative to MDCK-VC cells) ([2]; 50 µM basal) | Average ratio of vectorial transport (relative to MDCK-VC cells) ([2]; 100 µM basal) | Average ratio of vectorial transport (relative to MDCK-VC cells) ([3]; 1 µM basal) | Average ratio of vectorial transport (relative to MDCK-VC cells) ([3]; 20 µM basal) | Average ratio of vectorial transport (relative to MDCK-VC cells) ([3]; 50 µM basal) | Average ratio of vectorial transport (relative to MDCK-VC cells) ([3]; 100 µM basal) | Average ratio of vectorial transport (relative to MDCK-VC cells) ([4]; 1 µM basal) | Average ratio of vectorial transport (relative to MDCK-VC cells) ([4]; 20 µM basal) | Average ratio of vectorial transport (relative to MDCK-VC cells) ([4]; 50 µM basal) | Average ratio of vectorial transport (relative to MDCK-VC cells) ([4]; 100 µM basal) | further results
1 | CN(C)C(N)=NCCC[C@H](N)C(=O)O [ADMA, asymmetric dimethylarginine] | significantly higher | 2.0 | 1.92 | 1.87 | 2.00 | 1.83 | 1.10 | 1.19 | 1.20 | 1.30 | 1.17 | 1.19 | 1.14 | 1.20 | Share excreted unchanged into urine [1]: 20%; Share taken up into proximal tubule cells that is metabolized (e.g. by DDAH1) [1]: ~80%; Transport ratio MDCK-OATP4C1-P-gp vs MDCK-VC ([2]; 1 µM, 1 h): 1.92 fold; Transcellular transport rate ([2]; MDCK-OATP4C1-P-gp cells, 1 µM, basal to apical, 1 h): 9.2 ± 1.2 pmol × mg protein^−1 × min^−1; Transcellular transport rate [5]: 4.8 ± 0.4 pmol × mg protein^−1 × min^−1
2 | NC(N)=NCCCC[C@H](N)C(=O)O [L-homoarginine] | significantly higher | 3.4 | 3.44 | 3.94 | 3.41 | 6.65 | 1.11 | 1.61 | 1.45 | 1.43 | 1.33 | 1.92 | 2.09 | 2.31 | Km [6]: 175 µM; Km [7]: 49.9 µM
3 | C[C@H]1O[C@@H](O[C@H]2[C@@H](O)C[C@H](O[C@H]3[C@@H](O)C[C@H](O[C@H]4CC[C@@]5(C)[C@H](CC[C@@H]6[C@@H]5C[C@@H](O)[C@]5(C)[C@@H](C7=CC(=O)OC7)CC[C@]65O)C4)O[C@@H]3C)O[C@@H]2C)C[C@H](O)[C@@H]1O [digoxin, reference compound] | – | – | – | – | – | – | – | – | – | – | – | – | – | – | Transcellular transport in MDCK-P-gp in comparison to MDCK-VC ([3]; 5 µM, incubation time 1 h): 1.7 fold
